Assay [1] relates to methicillin-resistant vancomycin intermediate S. aureus (MR-VISA). Briefly: Mouse neutropenic thigh infection model against MR-VISA. Type of assay: in vivo. The settings on record: neutropenic female CD-1 mice, 12 mg/kg intravenously, 24 h post first treatment. As to the method:
In-vivo activity against methicillin-resistant vancomycin intermediate S. aureus (MR-VISA):
Mouse Neutropenic Thigh Infection Model:
About six-week-old, female CD-1 mice (weight, ˜19-24 g) were used for the experiments. The mice were rendered neutropenic (˜100 neutrophils/ml) by injecting two doses of cyclophosphamide intraperitoneally 4 days (150 mg/kg) and 1 day (100 mg/kg) before the infection experiment. 50 μL of […] concentration of the bacterial inoculum (MR-VISA) was injected into the thigh. One hour after inoculation, animals were treated intravenously with saline, vancomycin, linezolid and compound 14 at 12 mg/kg body weight. At 24 h post first treatment, cohorts of animals were euthanized (using ether) and the thighs were collected aseptically. […] The dilutions of the homogenate were plated onto agar plates, which were incubated overnight at 37° C. The bacterial titer was expressed as log10 CFU/g of thigh weight.

The subject of assay [2] is Vancomycin-resistant E. faecium (ATCC 51559). Briefly: Minimum inhibitory concentration, micro-dilution broth, VREm. Type of assay: cell-based. The settings on record: for MIC: Enterococcus faecium, read-out: Minimum Inhibitory Concentration VREm. The protocol: (§1) All test compounds were assayed in a micro-dilution broth format. Stock solutions were made by serially diluting the compounds using autoclaved millipore water or broth media. The antibacterial activity of the compounds was determined againstmethicillin-resistant S. aureus (MRSA), vancomycin-intermediate-resistant S. aureus (VISA), vancomycin-sensitive E. faecium (VSE), vancomycin-resistant E. faecalis and vancomycin-resistant E. faecium (VRE). Bacteria, to be tested, were grown for about 10 h in the suitable media, MSSA, MRSA and VISA were grown in […] (about 1 g of beef extract, about 2 g of yeast extract, about 5 g of peptone and about 5 g of NaCl in about 1000 mL of sterile distilled water (pH-7)). For solid media, about 5% agar was used along with above mentioned composition. VSE and VRE were cultured in Brain Heart Infusion broth (Himedia). The bacterial samples were freeze dried and stored at −80° C. About 5 μL of these stocks were added to about 3 mL of the nutrient broth or Brain Heart Infusion broth and the culture was grown for about 6 h at about 37° C. prior to the experiments. This 6 h grown culture gives about 10^9 cfu/mL and this was determined by spread plating method. The 6 h grown culture was diluted to give effective cell concentration of about 10^5 cfu/mL, which was then used for determining MIC. Compounds were serially diluted, in sterile water (2-fold dilution is employed) in a way that the working concentration was about 10 μM for MRSA, and VSE while for VRE and VISA it was about 100 μM. About 50 μL of these serial dilutions were added to the wells of 96 well plate followed by the addition of about 150 μL of bacterial solution. The plates were then incubated at about 37° C., 150 rpm in the incubator and O.D at 620 nm was recorded at an interval of about 24 h using TECAN (Infinite series, M200 pro) Plate Reader. Each concentration had triplicate values and the whole experiment was done at least twice and the MIC value was determined by taking the average of triplicate O. D. values for each concentration and plotting it against concentration. The data was then subjected to sigmoidal fitting.
On the technique in general: Dilution methods test growth across graded concentrations, often in twofold steps.

Assay [3] deals with Vancomycin intermediate resistant S. aureus. Briefly: Minimum inhibitory concentration, micro-dilution broth, VISA. The following applies: Staphylococcus aureus, read-out: Minimum Inhibitory Concentration VISA. Type of assay: cell-based. As to the method:
as §1

In assay [4] the test system is Vancomycin-resistant E. faecalis (VanA, ATCC 51575). Briefly: Minimum inhibitory concentration, micro-dilution broth, VREs. The settings on record: Enterococcus faecalis, read-out: Minimum Inhibitory Concentration VREs. Type of assay: cell-based. As to the method:
as §1

Assay [5] has as its system Methicillin-resistant S. aureus (ATCC 33591). Briefly: Minimum inhibitory concentration, micro-dilution broth, MRSA. Type of assay: cell-based. The following applies: Staphylococcus aureus, read-out: Minimum Inhibitory Concentration MRSA. The protocol: as §1
Setting [6] is: ATCC51559, E. faecium ATCC 51559, O.D. 620 nm at 24 h.
Setting [7] is: ATCC51575, E. faecalis ATCC 51575, O.D. 620 nm at 24 h.
The mark [8] stands for this setting: MRSA ATCC 33591, O.D. 620 nm at 24 h.

≈ marks a conversion by molar mass, not a printed value. Where two headings read alike, the source gives them in different places.

This is an account of results in patent US20170342110A1, “GLYCOPEPTIDES AND USES THEREOF” (JAWAHARLAL NEHRU CENTRE FOR ADVANCED SCIENTIFIC RESEARCH …, priority 2014, published 2017).

Regarding `CC(=O)NC[C@H]1CN(c2ccc(N3CCOCC3)c(F)c2)C(=O)O1` [linezolid], in assay [1], the “in-vivo antibacterial activity compared to vehicle treated mice (saline), in words” value is on record as “minimal or no activity”.

Regarding `CNC(CC(C)C)C(=O)NC1C(=O)N[C@H](CC(N)=O)C(=O)N[C@H]2C(=O)N[C@H]3C(=O)NC(C(=O)N[C@@H](C(=O)O)c4cc(O)cc(O)c4-c4cc3ccc4O)C(O)c3ccc(c(Cl)c3)Oc3cc2cc(c3OC2OC(CO)C(O)C(O)C2OC2CC(C)(N)C(O)C(C)O2)Oc2ccc(cc2Cl)C1O` (some centres unmarked) [Vancomycin, reference compound], the MIC in assay [2] (ATCC51559, 24 h) was 750 µM (≈ 1090 µg/mL); in assay [3] (24 h), 8 to 12 µM (≈ 11.6 to 17.4 µg/mL); in assay [4] (ATCC51575, 24 h), 250 µM (≈ 362 µg/mL); in assay [5] (24 h), 0.78 µM (≈ 1.13 µg/mL). Further, in assay [1], the “in-vivo antibacterial activity compared to vehicle treated mice (saline), in words” value was “minimal or no activity”.

`CCCCCCCCCC[n+]1ccc(CNC2(C)CC(OC3C(Oc4c5cc6cc4Oc4ccc(cc4Cl)C(O)C4NC(=O)[C@@H](NC(=O)[C@@H]6NC(=O)C(CC(N)=O)NC(=O)C(NC(=O)C(CC(C)C)NC)C(O)c6ccc(c(Cl)c6)O5)c5ccc(O)c(c5)-c5c(O)cc(O)cc5[C@@H](C(=O)NCCCNC(=O)C(O)C(O)C(O[C@H]5OC(CO)C(O)C(O)C5O)C(O)CO)NC4=O)OC(CO)C(O)C3O)OC(C)C2O)cc1` (some centres unmarked) [Compound 15]: the MIC in assay [2] (setting [6]) stood at 0.3 µM; in assay [3] (O.D. 620 nm at 24 h), 0.09 µM; in assay [4] (setting [7]), 1.3 µM; in assay [5] (setting [8]), 0.2 µM.

As for `CCCCCCCCCCCC[n+]1ccc(CNC2(C)CC(OC3C(Oc4c5cc6cc4Oc4ccc(cc4Cl)C(O)C4NC(=O)[C@@H](NC(=O)[C@@H]6NC(=O)C(CC(N)=O)NC(=O)C(NC(=O)C(CC(C)C)NC)C(O)c6ccc(c(Cl)c6)O5)c5ccc(O)c(c5)-c5c(O)cc(O)cc5[C@@H](C(=O)NCCCNC(=O)C(O)C(O)C(OC5OC(CO)C(O)C(O)C5O)C(O)CO)NC4=O)OC(CO)C(O)C3O)OC(C)C2O)cc1` (some centres unmarked) [Compound 16], the MIC in assay [2] (setting [6]) was 0.37 µM; in assay [3] (O.D. 620 nm at 24 h), 0.31 µM; in assay [4] (setting [7]), 1.11 µM; in assay [5] (setting [8]), 0.28 µM.

On to `CCCCCCCC[n+]1ccc(CNC2(C)CC(OC3C(Oc4c5cc6cc4Oc4ccc(cc4Cl)C(O)C4NC(=O)[C@@H](NC(=O)[C@@H]6NC(=O)C(CC(N)=O)NC(=O)C(NC(=O)C(CC(C)C)NC)C(O)c6ccc(c(Cl)c6)O5)c5ccc(O)c(c5)-c5c(O)cc(O)cc5[C@@H](C(=O)NCCCNC(=O)C(O)C(O)C(O[C@H]5OC(CO)C(O)C(O)C5O)C(O)CO)NC4=O)OC(CO)C(O)C3O)OC(C)C2O)cc1` (some centres unmarked) [Compound 14], for which the MIC in assay [2] (setting [6]) worked out at 0.09 µM; in assay [3] (O.D. 620 nm at 24 h), 0.1 µM; in assay [4] (setting [7]), 1.36 µM; in assay [5] (setting [8]), 0.09 µM. For the same molecule, the “fold more active than vancomycin against VREm/VRE (MIC)” value in assay [2] (relative to vancomycin) is > 7500 fold. Besides, the “reduction in bacterial count from the vehicle treated mice” value in assay [1] is ~6.0 log10 CFU/g.
